Consider eleven compounds from patent US20240239775A1, “FXR REGULATOR, PREPARATION METHOD THEREFOR, PHARMACEUTICAL COMPOSITION THEREOF AND USE THEREOF” (QINGDAO RUIJI MEDICAL TECHNOLOGY CO., LTD., priority 2021, published 2024).

Each structure is given as a SMILES string.

One series has as its target T1, FXR (Homo sapiens, UniProt Q96RI1).
T1 construct: 5 μL of 20 nM FXR-LBD Complete Coregulator buffer G; purchased ThermoFisher PV4833
T1 sequence (Q96RI1 262-486 limits assumed): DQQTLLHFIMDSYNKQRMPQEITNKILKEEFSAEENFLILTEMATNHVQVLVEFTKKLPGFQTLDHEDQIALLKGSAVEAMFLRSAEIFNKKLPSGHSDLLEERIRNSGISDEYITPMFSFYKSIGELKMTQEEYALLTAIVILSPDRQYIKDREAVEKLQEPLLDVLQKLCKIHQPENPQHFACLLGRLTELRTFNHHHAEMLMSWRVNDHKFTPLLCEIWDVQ
The experiment in a line: FXR antagonist screening by TR-FRET (LanthaScreen TR-FRET FXR co-activation assay kit). It is filed as biochemical. The conditions noted are these: Table 1.1, FXR antagonistic activity; TR-FRET with CDCA; geometric means of at least two independent runs. Summed up: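 FXR-LBD (20 nM working solution) mixed with compound, CDCA (200 μM working solution) as agonist, Fluorescein-SRC2-2 and Tb-anti-GST antibody in Coregulator buffer G; 10 h at room temperature. Coactivator recruitment read by TR-FRET, triplicate wells.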

As for `Cc1c(C(=O)O)oc2ccc(S(=O)(=O)N(CCc3ccccc3)Cc3ccc(C(N)=O)cc3)cc12` [Example F27-S33, 3-methyl-5-(N-(4-carbamoylbenzyl)-N-phenethylsulfamoyl)benzofuran-2-carboxylic acid], the melting point (as a rule, the temperature of the solid-liquid transition) is > 380 °C (dec.). Further, at FXR, the IC50 (in general, the concentration that inhibits the measured activity by half) lay within 50 to 100 µM.

Compound `Cc1c(C(=O)O)oc2ccc(S(=O)(=O)N(CCc3ccccc3)Cc3ccc(OC(F)(F)F)cc3)cc12` [Example F27-S34, 3-methyl-5-(N-(4-(trifluoromethoxy)benzyl)-N-phenethylsulfamoyl)benzofuran-2-carboxylic acid] came in with a melting point of 216 to 217 °C. The IC50 against FXR is 10 to 50 µM.

On to `Cc1c(C(=O)O)oc2ccc(S(=O)(=O)N(CCc3ccccc3)Cc3ccc(SC(F)(F)F)cc3)cc12` [Example F27-S35, 3-methyl-5-(N-(4-(trifluoromethylthio)benzyl)-N-phenethylsulfamoyl)benzofuran-2-carboxylic acid], for which the melting point lay within 165 to 166 °C. At FXR, this compound registered an IC50 of 10 to 50 µM.

On to `Cc1c(C(=O)O)oc2ccc(S(=O)(=O)N(CCc3ccccc3)Cc3ccc(C(C)C)cc3)cc12` [Example F27-S36, 3-methyl-5-(N-(4-isopropylbenzyl)-N-phenethylsulfamoyl)benzofuran-2-carboxylic acid], for which the melting point lay within 206 to 207 °C. At FXR, this compound gave an IC50 of 10 to 50 µM.

Take `Cc1c(C(=O)O)oc2ccc(S(=O)(=O)N(CCc3ccccc3)Cc3ccc(C(C)(C)C)cc3)cc12` [Example F27-S37, 3-methyl-5-(N-(4-tert-butylbenzyl)-N-phenethylsulfamoyl)benzofuran-2-carboxylic acid]: the melting point was 206 to 207 °C. This compound returned an IC50 on FXR of 10 to 50 µM.

On to `CC(=O)c1ccc(CN(CCc2ccccc2)S(=O)(=O)c2ccc3oc(C(=O)O)c(C)c3c2)cc1` [Example F27-S38, 3-methyl-5-(N-(4-acetylbenzyl)-N-phenethylsulfamoyl)benzofuran-2-carboxylic acid], for which the melting point is > 380 °C (dec.). Besides, the half-inhibitory concentration (IC50) at FXR lay within 50 to 100 µM.

The compound `Cc1c(C(=O)O)oc2ccc(S(=O)(=O)N(CCc3ccccc3)Cc3ccc(C(=O)O)cc3)cc12` [Example F27-S39, 3-methyl-5-(N-(4-carboxybenzyl)-N-phenethylsulfamoyl)benzofuran-2-carboxylic acid] returned a melting point of 254 to 255 °C. At FXR, this compound registered a 50% inhibitory concentration (IC50) of 50 to 100 µM.

`Cc1c(C(=O)O)oc2ccc(S(=O)(=O)N(CCc3ccccc3)Cc3ccc(CC(=O)O)cc3)cc12` [Example F27-S41, 3-methyl-5-(N-(4-(carboxymethyl)benzyl)-N-phenethylsulfamoyl)benzofuran-2-carboxylic acid] yielded a melting point of 182 to 183 °C. Moreover, the IC50 against FXR fell in the range of 50 to 100 µM.

Turning to `Cc1c(C(=O)O)oc2ccc(S(=O)(=O)N(CCc3ccccc3)Cc3ccc(/C=C/C(=O)O)cc3)cc12` [Example F27-S42, (E)-3-methyl-5-(N-(4-(2-carboxyvinyl)benzyl)-N-phenethylsulfamoyl)benzofuran-2-carboxylic acid], the melting point lay within 270 to 271 °C. In addition, the IC50 against FXR fell in the range of 50 to 100 µM.

In the case of `Cc1c(C(=O)O)oc2ccc(S(=O)(=O)N(CCc3ccccc3)Cc3ccc4ccccc4c3)cc12` [Example F27-S45, 3-methyl-5-(N-(naphthalen-2-ylmethyl)-N-phenethylsulfamoyl)benzofuran-2-carboxylic acid], the melting point is > 380 °C (dec.). This compound returned an IC50 at FXR of 10 to 50 µM.

The compound `Cc1c(C(=O)O)oc2ccc(S(=O)(=O)N(CCc3ccccc3)Cc3c(F)cccc3F)cc12` [Example F27-S46, 3-methyl-5-(N-(2,6-difluorobenzyl)-N-phenethylsulfamoyl)benzofuran-2-carboxylic acid] yielded a melting point of 180 to 181 °C. The IC50 on FXR lay within 10 to 50 µM.
